# Where a SMILES comes first, the peptide text is derived from it. Where no end group is shown, it is not given here.
# Tests used:
# [1] = system: human natural killer (NK) cell-induced cytotoxicity against K562 human erythroleukemia cells; assay: natural killer (NK) cell assay, chromium 51 release; assay type: cell-based
# Experimental: 1. To calculate percent inhibition, the average of the three dilutions of
# 2. N K effector cells were human mononuclear cells freshly isolated by
# when incubated with normal human mononuclear cells (lymphocytes and monocytes) separated by ficoll-metronidazole gradient. […] E., et al., J. Clin. Invest. 67:1324, 1981).
# The target cells used were a human erythroleukemia cell line K562 which has molecular structures recognized by NK cells. The K562 targets were prepared by incubating them with the radioactive isotope chromium 51 which is incorporated within the cells. The cells were then washed to remove externally adherent chromium 51 and 20,000 K562 cells were added to 400,000, 200,000 and 100,000 mononuclear cells to provide NK killer-to-target ratio of 20 to 1, 10 to 1, and 5 to 1, respectively, in a final volume of 200 microliters. After a 3-hour incubation at 37° C. in a 5% CO2 atmosphere, the amount of chromium 51 in the supernatent (released from dead target cells) was counted to quantitate the amount of NK killing activity. The killing activity of peptide-treatedcells was compared to non-peptide treated cells to assess the peptide's effect on NK killing activity.
# [2] = system: human monocyte IgG Fc receptors; details: cited from earlier work
# mouse macrophages = details: Stanworth, Mol. Immunol. 19, 1245 (1982); cited from earlier work
# [3] = biological target: T1, IgE Fc receptors on a human lymphoblastoid cell line (wil-2wt) (Homo sapiens, UniProt P06734); details: Hamburger, Immunology 38, 781 (1979); cited from earlier work
# T1 construct: IgE Fc receptors on a human lymphoblastoid cell line (wil-2wt); host or cells: wil-2wt human lymphoblastoid cell line (endogenous receptor)
# T1 sequence (P06734 1-321): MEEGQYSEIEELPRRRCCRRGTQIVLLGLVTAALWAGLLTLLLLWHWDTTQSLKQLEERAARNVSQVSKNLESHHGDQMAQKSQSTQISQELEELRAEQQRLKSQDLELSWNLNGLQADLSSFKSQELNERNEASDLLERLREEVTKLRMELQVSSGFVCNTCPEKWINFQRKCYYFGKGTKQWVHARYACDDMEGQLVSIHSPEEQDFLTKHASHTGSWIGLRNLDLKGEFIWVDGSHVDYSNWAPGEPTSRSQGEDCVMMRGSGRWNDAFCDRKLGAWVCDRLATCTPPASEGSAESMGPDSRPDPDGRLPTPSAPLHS
# rodent mast cells = details: Stanworth et al. 1979; cited from earlier work
# human mast cells = details: Stanworth et al. 1979; cited from earlier work
# [4] = system: macrophage IgG Fc receptors of mice; details: Stanworth, Mol. Immunol. 19, 1245 (1982); cited from earlier work
# [5] = peptide 100 μg/ml, (killer-to-target ratio 20 to 1)
molecule,measurement,setting,value
"C[C@H](NC(=O)[C@@H](N)CC(=O)O)C(=O)N[C@@H](CCCNC(=N)N)C(=O)N[C@@H](Cc1c[nH]cn1)C(=O)O [Asp--Ala--Arg--His, Asp-Ala-Arg-His] (H-DARH-OH)",% cytotoxicity,"[1]; peptide 25 μg/ml, 5 to 1",6.8%
same,% cytotoxicity,"[1]; peptide 25 μg/ml, 10 to 1",12.9%
same,% cytotoxicity,"[1]; peptide 25 μg/ml, 20 to 1",19.3%
same,% cytotoxicity,"[1]; peptide 50 μg/ml, 5 to 1",7.5%
same,% cytotoxicity,"[1]; peptide 50 μg/ml, 10 to 1",12.8%
same,% cytotoxicity,"[1]; peptide 50 μg/ml, 20 to 1",13.8%
same,% cytotoxicity,"[1]; peptide 100 μg/ml, 5 to 1",10.5%
same,% cytotoxicity,"[1]; peptide 100 μg/ml, 10 to 1",16.4%
same,% cytotoxicity,[1]; [5],24.5%
"C[C@H](NC(=O)[C@H](CC(=O)O)NC(=O)[C@@H]1CCCN1)C(=O)N[C@@H](CCCNC(=N)N)C(=O)O [Pro--Asp--Ala-- Arg, Pro-Asp-Ala-Arg] (H-PDAR-OH)",% cytotoxicity,"[1]; peptide 25 μg/ml, 5 to 1",10.1%
same,% cytotoxicity,"[1]; peptide 25 μg/ml, 10 to 1",17.8%
same,% cytotoxicity,"[1]; peptide 25 μg/ml, 20 to 1",22.7%
same,% cytotoxicity,"[1]; peptide 50 μg/ml, 5 to 1",10.3%
same,% cytotoxicity,"[1]; peptide 50 μg/ml, 10 to 1",15.5%
same,% cytotoxicity,"[1]; peptide 50 μg/ml, 20 to 1",23.1%
same,% cytotoxicity,"[1]; peptide 100 μg/ml, 5 to 1",5.6%
same,% cytotoxicity,"[1]; peptide 100 μg/ml, 10 to 1",10.4%
same,% cytotoxicity,[1]; [5],17.1%
QYDSTYR [peptide identical to IgG aa 295-301],blocking of IgG binding to human monocyte IgG Fc receptors,[2],could slightly block
VFSRLEVTRAE [peptide identical to a portion of Cε 4 of human IgE at aa 505-515],effect on binding of 125I-human IgG to mouse macrophages,mouse macrophages,marked enhancement
PDARHS [hexapeptide derived from Cε 4 at aa 476-481],blocking of human IgE-binding to IgE Fc receptors on wil-2wt cells,[3],could block
"PRKTKGSGFFVF [peptide identical to portion of Cε 4 of human IgE, aa 495-506]",degranulation of rodent mast cells,rodent mast cells,able to cause degranulation
same,degranulation of human mast cells,human mast cells,able to cause degranulation
"C[C@H](N)C(=O)N[C@@H](CCCNC(=N)N)C(=O)N[C@@H](Cc1c[nH]cn1)C(=O)N[C@@H](CO)C(=O)O [Ala--Arg--His--Ser, Ala-Arg-His-Ser] (H-ARHS-OH)",% cytotoxicity,"[1]; peptide 25 μg/ml, 5 to 1",12.5%
same,% cytotoxicity,"[1]; peptide 25 μg/ml, 10 to 1",19.4%
same,% cytotoxicity,"[1]; peptide 25 μg/ml, 20 to 1",24.8%
same,% cytotoxicity,"[1]; peptide 50 μg/ml, 5 to 1",10.4%
same,% cytotoxicity,"[1]; peptide 50 μg/ml, 10 to 1",20.7%
same,% cytotoxicity,"[1]; peptide 50 μg/ml, 20 to 1",26.3%
same,% cytotoxicity,"[1]; peptide 100 μg/ml, 5 to 1",10.6%
same,% cytotoxicity,"[1]; peptide 100 μg/ml, 10 to 1",18.5%
same,% cytotoxicity,[1]; [5],21.8%
"YSKLTVDKSR [decapeptide from human IgG, identical to IgG aa 407-416]",blocking of human IgG binding to macrophage IgG Fc receptors of mice,[4],blocked human IgG binding
